The text below walks through data of the supplement of paper PMC10307832.

What all share (experiment): relative viability (nuclei count vs DMSO), 5 days (fraction); higher = more cells survive
Compound in test [1]: N#CC[C@H](C1CCCC1)n1cc(-c2ncnc3[nH]ccc23)cn1 [Ruxolitinib] + CC(C)C[C@H](NC(=O)[C@H](Cc1ccccc1)NC(=O)c1cnccn1)B(O)O [Bortezomib] (partner 0.002 µM)
The essentials:
(§1)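 Medians of duplicate plates are given as relative viability. That measure is the nuclei count in treated wells divided by the count in vehicle wells. Counts were taken on 4× images of lung cancer cell lines in 1536-well plates, 5 days after pin-tool dosing the day after seeding with one drug alone or a fixed anchor-drug dose plus five library-drug doses (not always all listed) in √10 steps.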

Compound in test [2]: N#CC[C@H](C1CCCC1)n1cc(-c2ncnc3[nH]ccc23)cn1 [Ruxolitinib] + Nc1ncn([C@H]2C[C@H](O)[C@@H](CO)O2)c(=O)n1 [Decitabine] (partner 2 µM)
In a few lines:
as §1

Compound in test [3]: CS(=O)(=O)c1ccc(C(=O)Nc2ccc(Cl)c(-c3ccccn3)c2)c(Cl)c1 [Vismodegib] + C[C@@H](Oc1cc(-c2cnn(C3CCNCC3)c2)cnc1N)c1c(Cl)ccc(F)c1Cl [Crizotinib] (partner 1 µM)
The essentials:
as §1

Compound in test [4]: CS(=O)(=O)c1ccc(C(=O)Nc2ccc(Cl)c(-c3ccccn3)c2)c(Cl)c1 [Vismodegib] + CCNC(=O)c1noc(-c2cc(C(C)C)c(O)cc2O)c1-c1ccc(CN2CCOCC2)cc1 [Luminespib] (partner 0.01 µM)
In a few lines: as §1

Turning to UMC-11, the relative viability in test [1] (first compound 0.08 µM) stood at 0.696; in test [1] (first compound 0.253 µM), 0.983; in test [1] (first compound 0.8 µM), 0.929; in test [1] (first compound 2.53 µM) it was 0.715; in test [1] (first compound 8 µM) it was 0.706; in test [2] (first compound 0.08 µM) it was 0.745. Further, the relative viability in test [2] (first compound 0.253 µM) worked out at 0.62; in test [2] (first compound 0.8 µM), 0.797; in test [2] (first compound 2.53 µM) it was 0.433; in test [2] (first compound 8 µM) it was 0.627; in test [3] (first compound 0.08 µM), 0.57; in test [3] (first compound 0.253 µM), 0.56. Moreover, the relative viability came out at 0.723 in test [3] (first compound 0.8 µM); 0.606 in test [3] (first compound 2.53 µM); 0.652 in test [3] (first compound 8 µM); 0.937 in test [4] (first compound 0.08 µM); 0.966 in test [4] (first compound 0.253 µM); 1.01 in test [4] (first compound 0.8 µM). Moreover, the relative viability in test [4] (first compound 2.53 µM) worked out at 0.933; in test [4] (first compound 8 µM), 1.04.
